The values that follow come from US10117877B2, “Methods for fat reduction” (ALLERGAN, INC., priority 2015, dated 2018).

Assay [1] has as its system prostamide receptors on human pre-adipocytes. Kind of assay: xCelligence impedance assay on pre-adipocytes. Format: cell-based. The settings on record: for EC50: 20 min, human pre-adipocytes, 7 concentrations (10^−5 to 10^−9 M), signal measured for 20 minutes; for stimulation of prostamide receptors on human pre-adipocytes: xCelligence impedance assay; for potency relative to bimatoprost on human pre-adipocytes: comparison of the EC50 values of Table 1. The protocol:
In this example it is shown that the compounds of Formulas I and II stimulates pre-adipocytes. In general, the compounds of Formulas I and II and bimatoprost were tested in the xCelligence impedance assay.
More specifically, pre-adipocytes were purchased from Lonza. Cells were expanded in Pre-adipocyte maintenance medium (Lonza, Switzerland). Once expanded, 10,000 cells per well were plated into xCelligence 96-well plates and incubated at 37° C. for 72 hours until the impedance signal normalized. Once normalized, media was switched to serum-free pre-adipocyte media (PDM-2) for 2 hours at 37° C. Once the signal stabilized for 30 minutes, compounds were added at 7 concentrations (10^−5 to 10^−9 M) and the signal measured for 20 minutes. The change in impedance was normalized to the background reading (buffer alone) and the EC50 calculations were determined using prism software.

Another assay has as its system female C57BL/6J mice. Kind of assay: in vivo mouse hair re-growth model, topical on shaved backs. The settings on record: 0.03% topical in minoxidil formulation; for full hair re-growth: shaved backs of mice. As for the experimental part: In general, the compound of formula I and bimatoprost were prepared in the minoxidil formulation (50% Propylene Glycol; 30% Ethyl Alcohol) at a concentration of 0.03% for both compounds. Both compounds were given topically to shaved backs of mice (as described in Khidhir et al. FASEB J. 2013 27(2):557-567).
More specifically, female C57BL/6J mice (cat. no. 000664; Jackson Laboratory, Bar Harbor, Me., USA), aged 7 weeks, were randomly distributed into 4 groups to avoid any sibling bias and housed in groups of 5 with standard diet food pellets and water available ad libitum. […] From the next day, termed d 0 (zero), each mouse was treated topically with either the vehicle alone (ethanol:propylene glycol:water 3:5:2) or 0.03, 0.10, or 0.30% bimatoprost in the vehicle for d 14; 10 mice were used for each condition. The appropriate solution (70 μl) was rubbed gently into the dorsal skin of each mouse daily; new gloves were worn for each treatment type. Hair growth was recorded daily for each animal for d 42, and dorsal photographs were taken at d 0, 7, 14, 17, 21, 24, 28, 31, 35, and 42. […] To calculate mean values, the first day of growth was designated as d 43 for any mouse showing no hair growth signs by the last day. The day when the shaved dorsal area was fully covered with new black hairs, i.e., there was no pink skin remaining and no visible difference in hair length to the adjacent unshaved areas, was also recorded. This assay has been successfully used to evaluate compounds that cause hair growth (see, e.g., Khidhir et al. FASB J. 2013, 27, 557-567; Plikus et al. J. Invest. Dermatol. 2008, 128, 1071-1080).

Assay [2] relates to Human Hair Dermal Papilla Cells (HHDPCs). The assay is described as follows: in vitro impedance (cell dielectric spectroscopy, CellKey) assay with human dermal papilla cells. The settings on record: 10^−5 to 10^−12 M, impedance measured over 20 minutes, three independent experiments. The format is cell-based. As for the experimental part:
In this example, the lack of activity of the compound according to Formulas I and II is shown. In general, bimatoprost or the compound of Formula I was incubated at concentrations from 10^−5 and 10^−12 M with human dermal papilla cells in an in vitro impedance assay. […] Three independent experiments were performed.
More specifically, Human Hair Dermal Papilla Cells (HHDPCs) were expanded in specific culture medium (Promo Cell). After growing, the cells were seeded on 96 well plates coated with poly-L-Lysine at 20,000 cells per well. Cells were incubated during 24 hours at 37° C., 5% CO2. The day of the experiment, the culture medium was eliminated and replaced by HBSS containing BSA, 0.1% v/v. The cells were incubated in the CellKey system, for 4 hours at 28° C. before using to test compounds. Bimatoprost, the compound of Formula I, and/or the compound of Formula II were tested at […] from 10^−5 to 10^−12 M. The change in impedance was measured over 20 minutes. The background was subtracted and the impedance signal was normalized to the reference (bimatoprost) for the compound of Formula I and the compound of Formula II. The data presented is in triplicate and of three independent experiments.

Assay [3] is described as follows: body weight gain in rats on daily oral gavage for 26 weeks. Format: in vivo, rats (Hsd: Sprague Dawley). As for the experimental part: In this example it is shown that the compound of Formula I when administration orally daily results in reduction in weight gain and lower mean body weights. In general males rats (n=17-20) and female rats (n=17-20) were administered orally (by gavage) daily for 6 months at the doses indicated below.
More specifically, male and female rats (Hsd: Sprague Dawley) were assigned to four groups and administered test article formulations (0.03, 0.3, or 5 mg/kg/day compound of Formula I) or vehicle control article (0 mg/mL [0%] compound of Formula I [placebo] containing 3% hydroxypropyl-β-cyclodextrin [30 mg/mL (150 mg/kg/day)] and 10 mM phosphate buffered saline) via oral gavage once daily for 26 weeks at a volume of 5 mL/kg. Animals were sacrificed at the end of the dosing phase (up to 15 animals/sex/group) or at the end of the 4-week recovery phase (5 animals/sex/group in dose groups given vehicle control article and 5 mg/kg/day the compound of Formula I). These animals were on a restricted diet due to the length of the study. Weights were measured once per week.

The mark [4] stands for this setting: 5 mg/kg/day oral gavage daily for 6 months, p<0.05.

“Also recorded” adds a separate entry of the source.

For the molecule `CCNC(=O)CCC/C=C\C[C@@H]1[C@@H](/C=C/[C@@H](O)CCc2ccccc2)[C@H](O)C[C@@H]1O` [Bimatoprost, bimatoprost, reference compound], in assay [1], the EC50 – broadly, the concentration at which the effect is half-maximal – came out at 784 nM and the “stimulation of prostamide receptors on human pre-adipocytes” value (“stimulation of prostamide receptors” for short) is “stimulate prostamide receptors”. In the assay with female C57BL/6J mice, the “start of hair re-growth” value was “accelerates both time to start and full hair re-growth”; the full hair re-growth entry was “accelerates both time to start and full hair re-growth”. Moreover, the “change in impedance (agonist response) on human dermal papilla cells” value (“change in impedance (agonist response)” below) in assay [2] is “reduction in impedance; also recorded: shows activity”.
In the case of `NC(=O)CCC/C=C\C[C@@H]1[C@@H](/C=C/[C@@H](O)CCc2cc(Br)sc2Br)[C@H](O)C[C@@H]1O` [Formula II], in assay [1], the EC50 was 11.7 nM, the “potency relative to bimatoprost on human pre-adipocytes” value is on record as “relatively more potent than bimatoprost” and the “stimulation of prostamide receptors” value was “stimulate prostamide receptors”. In assay [2], the “change in impedance (agonist response)” value is listed as “do not show activity”.
Take `NC(=O)CCC/C=C\C[C@@H]1[C@@H](/C=C/[C@@H](O)CCc2cc(Cl)sc2Cl)[C@H](O)C[C@@H]1O` [Formula I]: in assay [1], the midpoint of the response, the EC50, lay at 10.7 nM; the “potency relative to bimatoprost on human pre-adipocytes” value was “relatively more potent than bimatoprost”; the “stimulation of prostamide receptors” value is on record as “stimulate prostamide receptors”. In addition, in the assay with female C57BL/6J mice, the “start of hair re-growth” value is “appears to boost the start to hair re-growth” and the full hair re-growth entry is recorded as “does not result in full hair re-growth”. Further, the “weight gain, female rats” value in assay [3] (0.3 mg/kg/day oral gavage daily for 6 months, p<0.05) is recorded as “inhibited weight gain”. In assay [3] (setting [4]), the “weight gain, female rats” value was “inhibited weight gain” and the “weight gain, male rats” value was “inhibited weight gain”. Further, in assay [3] (4-week recovery phase after 5 mg/kg/day), the “reversibility of the weight effect after administration ceased” value was “somewhat reversible”. Also, the “start of the decrease in body weight gain” value in assay [3] (daily oral administration, male and female rats, persisted up to 183 days) was determined as 14 days. Also, the “change in impedance (agonist response)” value in assay [2] is listed as “did not produce any detectable effect; also recorded: do not show activity”.
